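48-hour exposure; five concentrations; linearly interpolated endpoints. The concentration for 50% growth inhibition is given as GI50. At the TGI there is no net growth.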
Legend:
Experiment in all cases: NCI tumour cell line growth inhibition, 48 h
A498 renal = system: A498 renal
OVCAR-4 ovarian = system: OVCAR-4 ovarian
LOX IMVI melanoma = system: LOX IMVI melanoma
DU-145 prostate = system: DU-145 prostate
EKVX NSCLC = system: EKVX NSCLC
OVCAR-5 ovarian = system: OVCAR-5 ovarian
NCI-H460 lung = system: NCI-H460 lung
NCI/ADR-RES ovarian = system: NCI/ADR-RES ovarian
SK-MEL-2 melanoma = system: SK-MEL-2 melanoma
A549 NSCLC = system: A549 NSCLC
SNB-75 CNS = system: SNB-75 CNS
COLO 205 colon = system: COLO 205 colon
NCI-H23 lung = system: NCI-H23 lung
CCRF-CEM leukemia = system: CCRF-CEM leukemia
OVCAR-3 ovarian = system: OVCAR-3 ovarian
IGROV1 ovarian = system: IGROV1 ovarian
T-47D breast = system: T-47D breast
OVCAR-8 ovarian = system: OVCAR-8 ovarian
BT-549 breast = system: BT-549 breast
786-0 renal = system: 786-0 renal
HOP-92 NSCLC = system: HOP-92 NSCLC
SF-295 CNS = system: SF-295 CNS
SW-620 colon = system: SW-620 colon
SK-MEL-5 melanoma = system: SK-MEL-5 melanoma
M14 melanoma = system: M14 melanoma
UACC-257 melanoma = system: UACC-257 melanoma
MOLT-4 leukemia = system: MOLT-4 leukemia
SK-OV-3 ovarian = system: SK-OV-3 ovarian
RPMI-8226 leukemia = system: RPMI-8226 leukemia
MDA-MB-231 breast = system: MDA-MB-231 breast
MCF7 breast = system: MCF7 breast
SK-MEL-28 melanoma = system: SK-MEL-28 melanoma
MALME-3M melanoma = system: MALME-3M melanoma
SF-539 CNS = system: SF-539 CNS
TK-10 renal = system: TK-10 renal
KM12 colon = system: KM12 colon
PC-3 prostate = system: PC-3 prostate
HOP-62 NSCLC = system: HOP-62 NSCLC
U251 CNS = system: U251 CNS
HT29 colon = system: HT29 colon
HL-60(TB) leukemia = system: HL-60(TB) leukemia
NCI-H522 lung = system: NCI-H522 lung
RXF 393 renal = system: RXF 393 renal
SNB-19 CNS = system: SNB-19 CNS
K-562 leukemia = system: K-562 leukemia
MDA-MB-435 = system: MDA-MB-435
CAKI-1 renal = system: CAKI-1 renal
UO-31 renal = system: UO-31 renal
SN12C renal = system: SN12C renal
HCT-15 colon = system: HCT-15 colon
HS 578T breast = system: HS 578T breast
HCC-2998 colon = system: HCC-2998 colon
UACC-62 melanoma = system: UACC-62 melanoma
ACHN renal = system: ACHN renal

Structure (SMILES): O=C1/C(=C/c2ccccc2)CN(C(=O)CCN2CCC(=NO)CC2)C/C1=C\c1ccccc1
- GI50 (A498 renal): 1.67 µM
- TGI (A498 renal): 3.9 µM
- GI50 (OVCAR-4 ovarian): 2.15 µM
- TGI (OVCAR-4 ovarian): 4.69 µM
- GI50 (LOX IMVI melanoma): 0.366 µM
- TGI (LOX IMVI melanoma): 1.41 µM
- GI50 (DU-145 prostate): 1.8 µM
- TGI (DU-145 prostate): 3.27 µM
- GI50 (EKVX NSCLC): 2.81 µM
- TGI (EKVX NSCLC): 9.01 µM
- GI50 (OVCAR-5 ovarian): 1.8 µM
- TGI (OVCAR-5 ovarian): 3.58 µM
- GI50 (NCI-H460 lung): 2.43 µM
- TGI (NCI-H460 lung): 5.83 µM
- GI50 (NCI/ADR-RES ovarian): 2.49 µM
- TGI (NCI/ADR-RES ovarian): 8.68 µM
- GI50 (SK-MEL-2 melanoma): 4.56 µM
- TGI (SK-MEL-2 melanoma): 16.2 µM
- GI50 (A549 NSCLC): 3.05 µM
- GI50 (SNB-75 CNS): 2.85 µM
- TGI (SNB-75 CNS): 11.5 µM
- GI50 (COLO 205 colon): 1.68 µM
- TGI (COLO 205 colon): 3.29 µM
- GI50 (NCI-H23 lung): 1.89 µM
- TGI (NCI-H23 lung): 4.28 µM
- GI50 (CCRF-CEM leukemia): 0.758 µM
- TGI (CCRF-CEM leukemia): 9.33 µM
- GI50 (OVCAR-3 ovarian): 1.66 µM
- TGI (OVCAR-3 ovarian): 3.15 µM
- GI50 (IGROV1 ovarian): 1.69 µM
- TGI (IGROV1 ovarian): 3.35 µM
- GI50 (T-47D breast): 2.68 µM
- TGI (T-47D breast): 7.91 µM
- GI50 (OVCAR-8 ovarian): 1.31 µM
- TGI (OVCAR-8 ovarian): 3.29 µM
- GI50 (BT-549 breast): 1.63 µM
- TGI (BT-549 breast): 3.27 µM
- GI50 (786-0 renal): 1.98 µM
- TGI (786-0 renal): 4.51 µM
- GI50 (HOP-92 NSCLC): 2.03 µM
- TGI (HOP-92 NSCLC): 6.4 µM
- GI50 (SF-295 CNS): 2.08 µM
- TGI (SF-295 CNS): 4.64 µM
- GI50 (SW-620 colon): 0.322 µM
- TGI (SW-620 colon): 1.3 µM
- GI50 (SK-MEL-5 melanoma): 1.64 µM
- TGI (SK-MEL-5 melanoma): 2.99 µM
- GI50 (M14 melanoma): 1.5 µM
- TGI (M14 melanoma): 3.37 µM
- GI50 (UACC-257 melanoma): 1.92 µM
- TGI (UACC-257 melanoma): 4.7 µM
- GI50 (MOLT-4 leukemia): 0.686 µM
- TGI (MOLT-4 leukemia): 11.3 µM
- GI50 (SK-OV-3 ovarian): 2.51 µM
- TGI (SK-OV-3 ovarian): 7.09 µM
- GI50 (RPMI-8226 leukemia): 0.32 µM
- TGI (RPMI-8226 leukemia): 1.23 µM
- GI50 (MDA-MB-231 breast): 1.83 µM
- TGI (MDA-MB-231 breast): 3.47 µM
- GI50 (MCF7 breast): 0.355 µM
- TGI (MCF7 breast): 1.98 µM
- GI50 (SK-MEL-28 melanoma): 2.19 µM
- TGI (SK-MEL-28 melanoma): 5.29 µM
- GI50 (MALME-3M melanoma): 2.01 µM
- TGI (MALME-3M melanoma): 5.18 µM
- GI50 (SF-539 CNS): 1.91 µM
- TGI (SF-539 CNS): 3.85 µM
- GI50 (TK-10 renal): 2.38 µM
- TGI (TK-10 renal): 7.79 µM
- GI50 (KM12 colon): 0.663 µM
- TGI (KM12 colon): 2.23 µM
- GI50 (PC-3 prostate): 1.52 µM
- TGI (PC-3 prostate): 3.87 µM
- GI50 (HOP-62 NSCLC): 1.79 µM
- TGI (HOP-62 NSCLC): 3.64 µM
- GI50 (U251 CNS): 1.51 µM
- TGI (U251 CNS): 3.49 µM
- GI50 (HT29 colon): 1.21 µM
- TGI (HT29 colon): 3.61 µM
- GI50 (HL-60(TB) leukemia): 2.59 µM
- TGI (HL-60(TB) leukemia): 8.33 µM
- GI50 (NCI-H522 lung): 1.6 µM
- TGI (NCI-H522 lung): 3.36 µM
- GI50 (RXF 393 renal): 1.56 µM
- TGI (RXF 393 renal): 2.96 µM
- GI50 (SNB-19 CNS): 1.83 µM
- TGI (SNB-19 CNS): 4.06 µM
- GI50 (K-562 leukemia): 0.396 µM
- TGI (K-562 leukemia): > 100 µM
- GI50 (MDA-MB-435): 1.42 µM
- TGI (MDA-MB-435): 3.19 µM
- GI50 (CAKI-1 renal): 1.61 µM
- TGI (CAKI-1 renal): 3.01 µM
- GI50 (UO-31 renal): 1.4 µM
- TGI (UO-31 renal): 2.71 µM
- GI50 (SN12C renal): 1.86 µM
- TGI (SN12C renal): 4.03 µM
- GI50 (HCT-15 colon): 1.39 µM
- TGI (HCT-15 colon): 3.27 µM
- GI50 (HS 578T breast): 3.09 µM
- TGI (HS 578T breast): 14.6 µM
- GI50 (HCC-2998 colon): 1.73 µM
- TGI (HCC-2998 colon): 3.32 µM
- GI50 (UACC-62 melanoma): 1.7 µM
- TGI (UACC-62 melanoma): 3.77 µM
- GI50 (ACHN renal): 1.85 µM
- TGI (ACHN renal): 3.91 µM

Reference: PubChem BioAssay (NCI)
